In ChEMBL document CHEMBL2203010, “The discovery of tropane-derived CCR5 receptor antagonists” (Chem Biol Drug Des, 2006):

Columns and labels:
[1] = target: T1, Voltage-gated inwardly rectifying potassium channel KCNH2 (Homo sapiens, UniProt Q12809); test: Displacement of [3H]dofetilide from human ERG
[2] = Dissociation constant, pKa of the compound; type: physicochemical
[3] = target: T1, Voltage-gated inwardly rectifying potassium channel KCNH2; test: Inhibition of human ERG
[4] = target: C-C chemokine receptor type 5 (Homo sapiens, UniProt P51681); test: Displacement of [125I]MIP-1beta from CCR5 receptor
Sequence of C-C chemokine receptor type 5 (P51681 whole entry): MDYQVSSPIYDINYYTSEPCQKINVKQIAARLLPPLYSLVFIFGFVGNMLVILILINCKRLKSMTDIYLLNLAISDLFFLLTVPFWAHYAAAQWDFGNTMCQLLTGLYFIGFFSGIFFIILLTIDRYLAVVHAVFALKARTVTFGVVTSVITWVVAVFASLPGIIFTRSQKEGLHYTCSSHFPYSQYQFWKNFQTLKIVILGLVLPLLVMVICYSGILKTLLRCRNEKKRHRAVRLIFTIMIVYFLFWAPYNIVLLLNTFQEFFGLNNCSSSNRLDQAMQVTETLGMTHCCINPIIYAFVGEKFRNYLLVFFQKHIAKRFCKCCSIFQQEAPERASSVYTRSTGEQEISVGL

[5] = system: Human immunodeficiency virus 1; test: Antiviral activity against HIV1 BaL infected in peripheral blood lymphocytes assessed as inhibition of viral replication; type: functional; settings: Human immunodeficiency virus 1, BaL
[6] = system: Human immunodeficiency virus 1; test: Antiviral activity against CCR5-tropic HIV1 clade B infected in peripheral blood lymphocytes assessed as inhibition of viral replication; type: functional, organism-based; settings: Human immunodeficiency virus 1, clade B
[7] = target: hERG (KCNH2) (Homo sapiens, UniProt Q12809); test: Inhibition of human ERG at 1 uM
Sequence of hERG (KCNH2) (Q12809 whole entry): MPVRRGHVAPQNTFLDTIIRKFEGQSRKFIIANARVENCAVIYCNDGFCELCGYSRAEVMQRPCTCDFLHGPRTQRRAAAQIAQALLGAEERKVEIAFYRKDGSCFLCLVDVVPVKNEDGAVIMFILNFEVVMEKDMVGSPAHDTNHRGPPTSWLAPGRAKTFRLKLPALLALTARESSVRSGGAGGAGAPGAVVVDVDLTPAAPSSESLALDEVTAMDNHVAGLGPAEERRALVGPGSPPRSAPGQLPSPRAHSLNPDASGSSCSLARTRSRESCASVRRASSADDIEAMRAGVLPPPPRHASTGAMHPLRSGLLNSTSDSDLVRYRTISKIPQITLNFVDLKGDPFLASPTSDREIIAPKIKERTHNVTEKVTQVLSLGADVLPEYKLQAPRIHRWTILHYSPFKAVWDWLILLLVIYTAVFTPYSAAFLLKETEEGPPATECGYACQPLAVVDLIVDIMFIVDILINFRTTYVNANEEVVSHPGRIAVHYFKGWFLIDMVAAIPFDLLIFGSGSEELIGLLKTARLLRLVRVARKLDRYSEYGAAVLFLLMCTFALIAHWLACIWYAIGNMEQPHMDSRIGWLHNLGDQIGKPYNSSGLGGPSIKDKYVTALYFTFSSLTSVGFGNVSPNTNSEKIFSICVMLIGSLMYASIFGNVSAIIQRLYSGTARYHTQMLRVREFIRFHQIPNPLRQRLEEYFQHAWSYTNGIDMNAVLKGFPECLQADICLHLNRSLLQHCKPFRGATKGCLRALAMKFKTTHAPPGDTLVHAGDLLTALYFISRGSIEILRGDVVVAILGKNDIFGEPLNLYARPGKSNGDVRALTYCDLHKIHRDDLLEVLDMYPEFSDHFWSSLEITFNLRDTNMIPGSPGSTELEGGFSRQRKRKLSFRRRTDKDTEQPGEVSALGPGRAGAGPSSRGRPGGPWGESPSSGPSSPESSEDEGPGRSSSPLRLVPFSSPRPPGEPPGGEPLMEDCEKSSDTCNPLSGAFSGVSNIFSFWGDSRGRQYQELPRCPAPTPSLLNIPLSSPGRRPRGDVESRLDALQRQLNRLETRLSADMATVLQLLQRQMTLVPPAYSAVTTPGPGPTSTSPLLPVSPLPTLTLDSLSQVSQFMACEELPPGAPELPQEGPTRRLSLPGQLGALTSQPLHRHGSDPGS

[8] = system: Human immunodeficiency virus 1; test: Antiviral activity against CCR5-tropic HIV1 clade A infected in peripheral blood lymphocytes assessed as inhibition of viral replication; type: functional, organism-based; settings: Human immunodeficiency virus 1, clade A

T1 sequence (Q12809 whole entry): as above

| SMILES | Ki [1] [µM] | pKa [2] | inhibition (INH) [3] | IC50 [4] [µM] | IC90 [5] [µM] | IC50 [6] [µM] | inhibition at 1 µM [7] [%] | IC50 [8] [µM] |
| --- | --- | --- | --- | --- | --- | --- | --- | --- |
| Cc1nc2ccccc2n1[C@@H]1C[C@H]2COC[C@@H](C1)N2CC[C@H](NC(=O)C1CCC1)c1ccccc1 | 0.042 | 6 | Active | 0.009 |  |  |  |  |
| Cc1nc2ccccc2n1[C@@H]1C[C@@H](C)N(CC[C@H](NC(=O)C2CCC2)c2ccccc2)[C@@H](C)C1 |  |  | Active | 0.008 | 0.053 |  |  |  |
| Cc1nc2ccccc2n1C1CCN(CC[C@H](NC(=O)C2CCC2)c2ccccc2)CC1 |  |  |  | 0.02 | 0.073 |  |  |  |
| Cc1nc2ccccc2n1[C@@H]1C[C@H]2CC[C@@H](C1)N2CC[C@H](NC(=O)C1CCC1)c1ccccc1 |  |  | Active |  | 0.013 |  |  |  |
| Cc1nc2ccccc2n1[C@H]1C[C@H]2CC[C@@H](C1)N2CC[C@H](NC(=O)C1CCC1)c1ccccc1 |  | 7.8 | Active |  | 0.003 | 0.0009 | 99 | 0.0009 |
| Cc1nc2ccccc2n1C1CN(CC[C@H](NC(=O)C2CCC2)c2ccccc2)C1 |  |  | Active | > 1 |  |  |  |  |
| Cc1nc2ccccc2n1C1[C@H]2CN(CC[C@H](NC(=O)C3CCC3)c3ccccc3)C[C@@H]12 (some centres undefined) |  |  | Active | 0.017 | > 1 |  |  |  |
| Cc1nc2ccccc2n1C1(C)CCN(CC[C@H](NC(=O)C2CCC2)c2ccccc2)CC1 |  |  | Active | 0.0012 | 0.14 |  |  |  |
| Cc1nc2ccccc2n1[C@@H]1C[C@H]2CSC[C@@H](C1)N2CC[C@H](NC(=O)C1CCC1)c1ccccc1 |  |  | Active | 0.0215 |  |  |  |  |
| Cc1nc2ccccc2n1[C@H]1C[C@H]2COC[C@@H](C1)N2CC[C@H](NC(=O)C1CCC1)c1ccccc1 |  |  | Active | 0.0397 |  |  |  |  |
